These results are taken from article doi:10.1101/2024.08.19.608619, “Discovery of potent SARS-CoV-2 nsp3 macrodomain inhibitors uncovers lack of translation to cellular antiviral response” (bioRxiv, 2024).

Like-named read-outs stand apart in the source and are kept apart here.

Test [1] addresses T1, SARS-CoV-2 nsp3-mac1 (Severe acute respiratory syndrome coronavirus 2, UniProt P0DTD1). The test is described as follows: biochemical. The following applies: SARS-CoV-2 nsp3 macrodomain TR-FRET single point. Type of test: biochemical.
For test [2], the target named is T1, SARS-CoV-2 nsp3-mac1. Nature of the test: biochemical. Set-up: SARS-CoV-2 nsp3 macrodomain TR-FRET single point, per cent inhibition, n=2.
The mark [3] stands for this setting: read-out: perc_inhibition_mean, batch_name=ASAP-0000319-001.
Where [4] appears, read: read-out: perc_inhibition_mean, batch_name=ASAP-0000326-001.
[5] abbreviates: read-out: perc_inhibition_mean, batch_name=ASAP-0000415-001.
[6] abbreviates: read-out: perc_inhibition_mean, batch_name=ASAP-0000350-001.
Setting [7] is: read-out: perc_inhibition_mean, batch_name=ASAP-0000320-001.
Setting [8] is: read-out: perc_inhibition_mean, batch_name=ASAP-0000261-001.
Setting [9] is: read-out: perc_inhibition_mean, batch_name=ASAP-0000399-001.

On to `c1ccc(OC[C@@H]2CCCN2c2ncnc3[nH]ccc23)cc1` [ASAP-0000009], for which the perc_inhibition_mean at SARS-CoV-2 nsp3-mac1 [1] (concentration 50.0 uM) is recorded as -0.466%. On SARS-CoV-2 nsp3-mac1 [2] (read-out: perc_inhibition_mean, batch_name=ASAP-0000009-001), the inhibition at 50 µM is -0.466%.

On to `Nc1ncc(C(=O)N(CCC(=O)N2CCNCC2)Cc2cccc(Cl)c2)cn1` [ASAP-0000319], for which, on SARS-CoV-2 nsp3-mac1 [1] (concentration 49.75 uM, n=2), the perc_inhibition_mean was -2.76%. In addition, on SARS-CoV-2 nsp3-mac1 [1] (concentration 99.5 uM, n=2), the perc_inhibition_mean is recorded as -1.726%. Further, at SARS-CoV-2 nsp3-mac1 [2] (setting [3]), the inhibition at 49.75 µM was -2.76% and the inhibition at 99.5 µM is -1.73%.

As to `O=C(CCN(Cc1cccc(Cl)c1)C(=O)C1(O)CCCC1)N1CCNCC1` [ASAP-0000326], at SARS-CoV-2 nsp3-mac1 [1] (concentration 49.75 uM, n=2), the perc_inhibition_mean is given as -1.213%. Besides, on SARS-CoV-2 nsp3-mac1 [1] (concentration 99.5 uM, n=2), the perc_inhibition_mean is listed as -1.781%. For the same compound, on SARS-CoV-2 nsp3-mac1 [2] (setting [4]), the inhibition at 49.75 µM is -1.21% and the inhibition at 99.5 µM was -1.78%.

Take `O=C(Nc1ccc(C(=O)NCc2c(C(=O)O)[nH]c3ccccc23)cc1)NC1CC1` [ASAP-0000131]: on SARS-CoV-2 nsp3-mac1 [1] (concentration 50.0 uM), the perc_inhibition_mean worked out at 86.217%. The inhibition at 50 µM on SARS-CoV-2 nsp3-mac1 [2] (read-out: perc_inhibition_mean, batch_name=ASAP-0000131-001) turned out to be 86.2%.

Take `O=C(c1cccnc1O)N1CCC(c2ccn3ncc(C(=O)N4CCCCC4)c3c2)CC1` [ASAP-0000415]: the perc_inhibition_mean at SARS-CoV-2 nsp3-mac1 [1] (concentration 49.75 uM) was -7.036%. For the same compound, on SARS-CoV-2 nsp3-mac1 [1] (concentration 99.5 uM), the perc_inhibition_mean is -3.94%. Further, at SARS-CoV-2 nsp3-mac1 [2] (setting [5]), the inhibition at 49.75 µM is -7.04% and the inhibition at 99.5 µM was -3.94%.

On to `O=C(N[C@H]1CCC[C@H]1C(=O)O)c1cnn2ccc(C3CCN(C(=O)c4ccccc4)CC3)cc12` [ASAP-0000350], for which the perc_inhibition_mean on SARS-CoV-2 nsp3-mac1 [1] (concentration 49.75 uM, n=2) came out at 59.585%; at SARS-CoV-2 nsp3-mac1 [1] (concentration 99.5 uM, n=2) it was 73.53%. In addition, the inhibition at 49.75 µM on SARS-CoV-2 nsp3-mac1 [2] (setting [6]) worked out at 59.6%. The inhibition at 99.5 µM at SARS-CoV-2 nsp3-mac1 [2] (setting [6]) was 73.5%.

For `COCc1nc(CNc2c(C#N)c(C)nn2C)cs1` [ASAP-0000089], at SARS-CoV-2 nsp3-mac1 [1] (concentration 50.0 uM), the perc_inhibition_mean turned out to be 0.8%. Also, the inhibition at 50 µM at SARS-CoV-2 nsp3-mac1 [2] (read-out: perc_inhibition_mean, batch_name=ASAP-0000089-001) turned out to be 0.8%.

In the case of `CCn1cc(CNC(=O)c2ccc(NC(=O)Nc3ccccc3)cc2)cn1` [ASAP-0000320], on SARS-CoV-2 nsp3-mac1 [1] (concentration 49.75 uM, n=2), the perc_inhibition_mean was -1.76%. Besides, the perc_inhibition_mean at SARS-CoV-2 nsp3-mac1 [1] (concentration 99.5 uM, n=2) came out at 3.797%. Moreover, at SARS-CoV-2 nsp3-mac1 [2] (setting [7]), the inhibition at 49.75 µM was -1.76% and the inhibition at 99.5 µM turned out to be 3.8%.

As to `FC(F)(F)c1nc(NC[C@H]2CCCO2)c2nc[nH]c2n1` [ASAP-0000088], the perc_inhibition_mean on SARS-CoV-2 nsp3-mac1 [1] (concentration 50.0 uM) is 2.501%. The inhibition at 50 µM on SARS-CoV-2 nsp3-mac1 [2] (read-out: perc_inhibition_mean, batch_name=ASAP-0000088-001) turned out to be 2.5%.

Regarding `O=C(Nc1cnc2[nH]ncc2c1)c1ccc(Oc2cccc(Br)c2)nc1` [ASAP-0000023], the perc_inhibition_mean on SARS-CoV-2 nsp3-mac1 [1] (concentration 50.0 uM) is listed as -0.183%. The inhibition at 50 µM at SARS-CoV-2 nsp3-mac1 [2] (read-out: perc_inhibition_mean, batch_name=ASAP-0000023-001) was -0.183%.

For the compound `O=C(NCc1nc2cccnc2[nH]1)c1cnc2nc[nH]c(=O)c2c1` [ASAP-0000261], the perc_inhibition_mean at SARS-CoV-2 nsp3-mac1 [1] (concentration 50.0 uM, n=2) is listed as -1.987%; on SARS-CoV-2 nsp3-mac1 [1] (concentration 100.0 uM, n=2), 7.034%. Also, on SARS-CoV-2 nsp3-mac1 [2] (setting [8]), the inhibition at 50 µM is -1.99%. Further, the inhibition at 100 µM on SARS-CoV-2 nsp3-mac1 [2] (setting [8]) is 7.03%.

Take `O=C(N[C@@H]1COCC[C@H]1O)c1cnn2ccc(C3CCN(C(=O)c4ccccc4)CC3)cc12` [ASAP-0000399]: the perc_inhibition_mean at SARS-CoV-2 nsp3-mac1 [1] (concentration 49.75 uM) is -5.013%; on SARS-CoV-2 nsp3-mac1 [1] (concentration 99.5 uM) it was -4.477%. Besides, at SARS-CoV-2 nsp3-mac1 [2] (setting [9]), the inhibition at 49.75 µM is -5.01%. For the same compound, the inhibition at 99.5 µM at SARS-CoV-2 nsp3-mac1 [2] (setting [9]) was -4.48%.

Take `C=CCn1c(Sc2ncnc3[nH]ccc23)nc2sccc2c1=O` [ASAP-0000005]: the perc_inhibition_mean on SARS-CoV-2 nsp3-mac1 [1] (concentration 50.0 uM) worked out at 6.305%. Further, the inhibition at 50 µM at SARS-CoV-2 nsp3-mac1 [2] (read-out: perc_inhibition_mean, batch_name=ASAP-0000005-001) came out at 6.3%.

As to `Cc1nc2cnccn2c1NC(=O)c1cc(-c2ccco2)[nH]n1` [ASAP-0000101], on SARS-CoV-2 nsp3-mac1 [1] (concentration 50.0 uM), the perc_inhibition_mean is recorded as -3.884%. Moreover, at SARS-CoV-2 nsp3-mac1 [2] (read-out: perc_inhibition_mean, batch_name=ASAP-0000101-001), the inhibition at 50 µM is -3.88%.

On to `CN(CCOc1ccccc1)c1ncnc2[nH]ccc12` [ASAP-0000026], for which, at SARS-CoV-2 nsp3-mac1 [1] (concentration 50.0 uM), the perc_inhibition_mean is recorded as -2.258%. Besides, the inhibition at 50 µM on SARS-CoV-2 nsp3-mac1 [2] (read-out: perc_inhibition_mean, batch_name=ASAP-0000026-001) was -2.26%.

For the compound `c1ccc2sc(CCNc3ncnc4nc[nH]c34)nc2c1` [ASAP-0000003], the perc_inhibition_mean on SARS-CoV-2 nsp3-mac1 [1] (concentration 50.0 uM) was -4.211%. For the same compound, the inhibition at 50 µM on SARS-CoV-2 nsp3-mac1 [2] (read-out: perc_inhibition_mean, batch_name=ASAP-0000003-001) is -4.21%.
